This is an account of results in patent US11229590B2, “Sunscreen formulation” (priority 2018, dated 2022).

Series [1] can be described thus: 4-Methoxy-benzylamine formulation mice skin penetration test (plasma level by HPLC). Type of series: in vivo. The following applies: topical on mouse back. As for the experimental part: Mice Test Procedures: • 1. […] The 12 mice were randomly divided into two groups. […] Add methanol and acetonitrile 200 μL, respectively. […] Precisely transfer the supernatant solution to another test tube. At 40° C. blow N2 through to dryness. […] Supernatant solution was used directly for HPLC analysis. • 4.

The conditions of series [2]: formulation containing 10%, daily 2 mg/cm^2 for a week, cited from earlier work.
A short description of series [3]: Urine samples collected 2007-2009 from Californian females. Type of series: in vivo, human. The following applies: from 22.9 ng/mL to 200 ng/mL. The method, then: Since the first day of sunscreen usage in 1930s, the exposure to sunscreen agents has begun. Initially, the scope and frequency of the sunscreen usage among the human population were very limited. Therefore, the levels of UV filters found in human samples were usually low. However, for the last 20 years, the situation changed dramatically. In one epidemiological study conducted in 2003-2004, 2517 urine samples from United States general population were analyzed for the presence of oxybenzone (benzophenone-3, bp-3), as part of the 2003-2004 National Health and Nutrition Examination Survey [A. M. Calafat, L. Y. Wong, X. YE, J. A. Reidy, L. L. Needham, Concentrations of the sunscreen agent benzophenone-3 in residents of the United States: National Health and nutrition Examination Survey 2003-2004, Environ. Health Perspect, 116 (2008) 893-897]. Oxybenzone was detected in 97% of the all samples with mean concentration of 22.9 ng/ml and 95th percentile concentration of 1040 ng/ml. As the data indicates, the sunscreen agent occurrences are wide spread. […] 543 (2016) 28-36]. […] About nine times higher than previously reported levels of oxybenzone (up to 13000 ng/ml, average around 200 ng/ml) were found in urine samples collected in 2007-2009 from Californian females, which is probably a result of specific demographics [C. […]

The conditions of series [4]: couples, samples 2005-2009; cited from earlier work.
The conditions of series [5]: maternal urine, gestational weeks 6-30; cited from earlier work.
For series [6] the following is noted: 2517 urine samples, 2003-2004; cited from earlier work.
The conditions of series [7]: Californian females, 2007-2009; cited from earlier work.

With `COc1ccc(CN)cc1` [4-methoxy-benzylamine], the “skin penetration in mice” value in series [1] was “could not penetrate the skin of mice”.
With `Cc1ccc(C=C2C(=O)C3(C)CCC2C3(C)C)cc1` (stereo not drawn) [4-methylbenzylidene camphor], in series [2], the “maximum plasma concentration, females” value is 20 ng/mL; the “mean urine concentration, females” value was 5 ng/mL; the “maximum plasma concentration, males” value was 20 ng/mL; the “mean urine concentration, males” value was 7 ng/mL.
Regarding `CCCCC(CC)COC(=O)C=Cc1ccc(OC)cc1` (stereo not drawn) [octyl methoxycinnamate], in series [2], the “maximum plasma concentration, females” value is 10 ng/mL; the “mean urine concentration, females” value is 5 ng/mL; the “maximum plasma concentration, males” value was 2 ng/mL; the “mean urine concentration, males” value was 8 ng/mL.
`COc1ccc(C(=O)c2ccccc2)c(O)c1` [oxybenzone, 2-hydroxy-4-methoxybenzophenone]: in series [3], the “increase of average concentration in urine sample compared to 2003-2004 study” value is recorded as “more than 9 folds”. Further, the “rank among urinary benzophenone-type UV filters in the study population” value in series [4] is “most predominant”. For the same compound, in series [2], the “maximum plasma concentration, females” value was 200 ng/mL; the “mean urine concentration, females” value was 60 ng/mL; the “maximum plasma concentration, males” value was 300 ng/mL; the “mean urine concentration, males” value was 140 ng/mL. In addition, the “correlation of maternal urinary levels with overall weight and head circumference of the baby” value in series [5] is “positively correlated”. Moreover, in series [6], the “95th percentile concentration in urine” value is 1040 ng/mL, the “mean concentration in urine” value is 22.9 ng/mL and the “share of urine samples in which detected” value is 97%. In series [7], the “average level in urine samples” value is “around 200 ng/ml” and the “highest level in urine samples” value is recorded as “up to 13000 ng/ml”.
